This data set has as its system CCRIS mutagenicity, Ames/micronucleus/aberration tests. The data set can be described thus: CCRIS mutagenicity studies.
Setting [1] is: Test System: AMES SALMONELLA TYPHIMURIUM, Strain/Indicator: TA98, Metabolic Activation: HAMSTER, LIVER, S-9, AROCLOR 1254 (10%), Method: PREINCUBATION
[2] abbreviates: Test System: AMES SALMONELLA TYPHIMURIUM, Strain/Indicator: TA98, Metabolic Activation: NONE, Method: PREINCUBATION
[3] abbreviates: Test System: AMES SALMONELLA TYPHIMURIUM, Strain/Indicator: TA98, Metabolic Activation: RAT, LIVER, S-9, AROCLOR 1254 (10%), Method: PREINCUBATION
The mark [4] stands for this setting: Test System: AMES SALMONELLA TYPHIMURIUM, Strain/Indicator: TA100, Metabolic Activation: NONE, Method: PREINCUBATION
The mark [5] stands for this setting: Test System: AMES SALMONELLA TYPHIMURIUM, Strain/Indicator: TA100, Metabolic Activation: RAT, LIVER, S-9, AROCLOR 1254 (10%), Method: PREINCUBATION
Where [6] appears, read: Test System: AMES SALMONELLA TYPHIMURIUM, Strain/Indicator: TA1535, Metabolic Activation: HAMSTER, LIVER, S-9, AROCLOR 1254 (10%), Method: PREINCUBATION
[7] abbreviates: Test System: AMES SALMONELLA TYPHIMURIUM, Strain/Indicator: TA1535, Metabolic Activation: NONE, Method: PREINCUBATION
The mark [8] stands for this setting: Test System: AMES SALMONELLA TYPHIMURIUM, Strain/Indicator: TA1535, Metabolic Activation: RAT, LIVER, S-9, AROCLOR 1254 (10%), Method: PREINCUBATION
The mark [9] stands for this setting: Test System: AMES SALMONELLA TYPHIMURIUM, Strain/Indicator: TA1537, Metabolic Activation: HAMSTER, LIVER, S-9, AROCLOR 1254 (10%), Method: PREINCUBATION
Where [10] appears, read: Test System: AMES SALMONELLA TYPHIMURIUM, Strain/Indicator: TA1537, Metabolic Activation: NONE, Method: PREINCUBATION
[11] abbreviates: Test System: AMES SALMONELLA TYPHIMURIUM, Strain/Indicator: TA1537, Metabolic Activation: RAT, LIVER, S-9, AROCLOR 1254 (10%), Method: PREINCUBATION

SMILES strings stand for the structures. Calls of active or inactive are those of the source. No rule for the calls is given here.

In the case of `CNc1ccc(O)cc1`, the mutagenic call is “inactive; negative” (Test System: AMES SALMONELLA TYPHIMURIUM, Strain/Indicator: TA97, Metabolic Activation: HAMSTER, LIVER, AROCLOR 1254 (10%), Method: PREINCUBATION); “inactive; negative” (Test System: AMES SALMONELLA TYPHIMURIUM, Strain/Indicator: TA97, Metabolic Activation: NONE, Method: PREINCUBATION); “active; positive” (Test System: AMES SALMONELLA TYPHIMURIUM, Strain/Indicator: TA97, Metabolic Activation: RAT, LIVER, S-9, AROCLOR 1254 (10%), Method: PREINCUBATION); “inactive; negative” under setting [1]; “inactive; negative” under setting [2]; “inactive; negative” under setting [3]. Also, the mutagenic call reads like this: under setting [4], “inactive; negative”; under setting [5], “inactive; negative”; under setting [6], “inactive; negative”; under setting [7], “inactive; negative”; under setting [8], “inactive; negative”; under setting [9], “active; positive”. The mutagenic call runs as follows: under setting [10], “inactive; negative”; under setting [11], “active; positive”.

As for `N[C@@H](CCCCN/C=C/C=O)C(=O)O`, the mutagenic call (Test System: AMES SALMONELLA TYPHIMURIUM, Strain/Indicator: HISD3052, Metabolic Activation: NONE, Method: STANDARD PLATE) was “active; positive”.

With `C=CC[Si](C)(C)C`, the mutagenic call was “inactive; negative” under setting [1]; “inactive; negative” under setting [2]; “inactive; negative” under setting [3]; “inactive; negative” (Test System: AMES SALMONELLA TYPHIMURIUM, Strain/Indicator: TA100, Metabolic Activation: HAMSTER, LIVER, S-9, AROCLOR 1254 (10%), Method: PREINCUBATION); “inactive; negative” under setting [4]; “inactive; negative” under setting [5]. Moreover, the mutagenic call reads like this: under setting [6], “inactive; negative”; under setting [7], “inactive; negative”; under setting [8], “inactive; negative”; under setting [9], “inactive; negative”; under setting [10], “inactive; negative”; under setting [11], “inactive; negative”. Moreover, the mutagenic call reads like this: (Test System: AMES SALMONELLA TYPHIMURIUM, Strain/Indicator: TA1538, Metabolic Activation: HAMSTER, LIVER, S-9, AROCLOR 1254 (10%), Method: PREINCUBATION) “inactive; negative”; (Test System: AMES SALMONELLA TYPHIMURIUM, Strain/Indicator: TA1538, Metabolic Activation: NONE, Method: PREINCUBATION) “inactive; negative”; (Test System: AMES SALMONELLA TYPHIMURIUM, Strain/Indicator: TA1538, Metabolic Activation: RAT, LIVER, S-9, AROCLOR 1254 (10%), Method: PREINCUBATION) “inactive; negative”; (Test System: MOUSE LYMPHOMA, Strain/Indicator: L5178Y (TK+/TK-), Metabolic Activation: NONE, Method: SUSPENSION/PLATE) “inactive; negative. reevaluation of results: negative”; (Test System: MOUSE LYMPHOMA, Strain/Indicator: L5178Y (TK+/TK-), Metabolic Activation: RAT, LIVER, S-9, AROCLOR 1254, Method: SUSPENSION/PLATE) “inactive; negative. reevaluation of results: negative”.

`O=C/C=C/C=C\c1ccc([N+](=O)[O-])cc1`: the mutagenic call was “active; positive” (Test System: AMES SALMONELLA TYPHIMURIUM, Strain/Indicator: 98(NR), Metabolic Activation: HAMSTER, LIVER, S-9, AROCLOR 1254, Method: STANDARD PLATE); “active; positive” (Test System: AMES SALMONELLA TYPHIMURIUM, Strain/Indicator: 98(NR), Metabolic Activation: NONE, Method: STANDARD PLATE); “active; positive” (Test System: AMES SALMONELLA TYPHIMURIUM, Strain/Indicator: 98(NR), Metabolic Activation: RAT, LIVER, S-9, AROCLOR 1254, Method: STANDARD PLATE); “active; positive” (Test System: AMES SALMONELLA TYPHIMURIUM, Strain/Indicator: 100(NR), Metabolic Activation: HAMSTER, LIVER, S-9, AROCLOR 1254, Method: STANDARD PLATE); “active; positive” (Test System: AMES SALMONELLA TYPHIMURIUM, Strain/Indicator: 100(NR), Metabolic Activation: NONE, Method: STANDARD PLATE); “active; positive” (Test System: AMES SALMONELLA TYPHIMURIUM, Strain/Indicator: 100(NR), Metabolic Activation: RAT, LIVER, S-9, AROCLOR 1254, Method: STANDARD PLATE). For the same compound, the mutagenic call (Test System: AMES SALMONELLA TYPHIMURIUM, Strain/Indicator: TA98, Metabolic Activation: HAMSTER, LIVER, S-9, AROCLOR 1254, Method: STANDARD PLATE) is “active; positive”; the mutagenic call (Test System: AMES SALMONELLA TYPHIMURIUM, Strain/Indicator: TA98, Metabolic Activation: NONE, Method: STANDARD PLATE) is “active; positive”; the mutagenic call (Test System: AMES SALMONELLA TYPHIMURIUM, Strain/Indicator: TA98, Metabolic Activation: RAT, LIVER, S-9, AROCLOR 1254, Method: STANDARD PLATE) is “active; positive”; the mutagenic call (Test System: AMES SALMONELLA TYPHIMURIUM, Strain/Indicator: TA100, Metabolic Activation: HAMSTER, LIVER, S-9, AROCLOR 1254, Method: STANDARD PLATE) is “active; positive”; the mutagenic call (Test System: AMES SALMONELLA TYPHIMURIUM, Strain/Indicator: TA100, Metabolic Activation: NONE, Method: STANDARD PLATE) was “active; positive”; the mutagenic call (Test System: AMES SALMONELLA TYPHIMURIUM, Strain/Indicator: TA100, Metabolic Activation: RAT, LIVER, S-9, AROCLOR 1254, Method: STANDARD PLATE) was “active; positive”. Besides, the mutagenic call was “active; positive” (Test System: AMES SALMONELLA TYPHIMURIUM, Strain/Indicator: TA1535, Metabolic Activation: HAMSTER, LIVER, S-9, AROCLOR 1254, Method: STANDARD PLATE); “active; positive” (Test System: AMES SALMONELLA TYPHIMURIUM, Strain/Indicator: TA1535, Metabolic Activation: NONE, Method: STANDARD PLATE); “active; positive” (Test System: AMES SALMONELLA TYPHIMURIUM, Strain/Indicator: TA1535, Metabolic Activation: RAT, LIVER, S-9, AROCLOR 1254, Method: STANDARD PLATE); “active; positive” (Test System: AMES SALMONELLA TYPHIMURIUM, Strain/Indicator: TA1537, Metabolic Activation: NONE, Method: STANDARD PLATE); “active; positive” (Test System: AMES SALMONELLA TYPHIMURIUM, Strain/Indicator: TA1537, Metabolic Activation: RAT, LIVER, S-9, AROCLOR 1254, Method: STANDARD PLATE); “active; equivocal (previous evaluation positive)” (Test System: Mouse lymphoma, Strain/Indicator: L5178Y (tk+/tk-), Metabolic Activation: None, Method: Suspension/plate). The mutagenic call (Test System: Mouse lymphoma, Strain/Indicator: L5178Y (tk+/tk-), Metabolic Activation: Rat, Liver, S-9, Aroclor 1254, Method: Suspension/plate) was “inactive; negative”.

Values taken from PubChem BioAssay AID1259407 (Chemical Carcinogenesis Research Information System (CCRIS), 2018).
